Where two headings read alike, the source gives them in different places.
Tests used:
[1] = test system: Coil BCAS mice; test: Coil BCAS model, delayed administration (NOR, MBP immunostaining, CBF, body weight); type: in vivo
Method: The efficacy of administration of ZT-1a starting at 4 wks post-BCAS surgery, when matter demyelination has reached its peak, was examined next. To test the reproducibility of these findings, in this pilot study, the Coil BCAS model was used by placing two microcoils (0.18 mm diameter) in each CCAs, a well-established model with CBF reduction and accompanied by ischemic lesion to white matter tracks, cortex, and hippocampus. Either vehicle DMSO (Veh, 2 ml/kg) or ZT-1a (5 mg/kg, every 72 h, i.p) was administered at 4-8 wks post-BCAS (i.e., during 28-56 days after coil-BCAS, every 3 days) (FIG. 7A). […] Then MBP expression levels were examined in these brains by immunostaining. […] Data are mean±SEM, n=5-8, *p<0.01 vs. sham, *p<0.05 vs. Veh.

[2] = target: SPAK (Homo sapiens, UniProt Q9UEW8); test: Cellular inhibition of SPAK phosphorylation (pSer373); type: cell-based; settings: 50% inhibition of phosphorylation, n = 3, — = no inhibition
Excerpt: 8. Cellular Activity Profile of Inhibitors with the Salicyclic Amide
A list of the compounds evaluated for their ability to inhibit phosphorylation of SPAK/NKCC1/KCC3 activity is illustrated in Table 1 below.

[3] = test system: BCAS mice; test: Immunostaining of brains of BCAS mice (MBP, APC, NG2, caspase 3/Olig2, GFAP, tNKCC1); type: in vivo, C57BL/6J mice
Excerpt: Clinically, most patients with intracranial atherosclerotic stenosis suffer from permanent stenosis without occlusion. Therefore, to mimic clinical atherosclerotic stenosis with permanent carotid artery (CCA) hypoperfusion, a modified BCAS model was adapted by ligating the CCA guided with a 30 gauge needle (0.31 mm diameter) in the right CCA and a 33 gauge needle (0.21 mm diameter) in the left CCA with a 4-0 silk suture. […] Next, changes of total NKCC1 (tNKCC1) protein expression were surveyed in different brain regions at 2 and 4 wks post-surgery by immunofluorescence staining (IF). […] Therefore, in the rest of the study, the investigation was focused on its association to white matter GFAP^+ astrogliosis and lesion of CC and external capsul (EC) tracks. […] However, by 2 wks post-BCAS surgery, tNKCC1 immunofluorescence intensity in the CC tracks was increased by ˜3 folds (p<0.05), and further elevated to ˜6 folds by 4 wks (p<0.05, arrowhead). Data are mean±SEM, n=4, *p<0.05, **p<0.01. […] The upregulation of tNKCC1 and GFAP protein expression in the CC is correlated, with a Pearson's correlation coefficient of r=0.9 (p<0.001). […] In contrast, no elevated tNKCC1 protein was detected either in Iba1^+ microglia/macrophages or in Olig2+ oligodendrocytes (OL) at 4 wks post-BCAS surgery (FIG. 1D). Without wishing to be bound by theory, these findings indicate that upregulation of NKCC1 expression and activity in reactive astrocytes may play a critical role in white matter inflammation, OL death, and demyelination after BCAS. Next, whether administration of SPAK inhibitor ZT-1a reduces WML and improves cognitive functions was examined. Starting at 14 days after BCAS surgery in mice (male), either vehicle DMSO (Veh, 2 ml/kg) or ZT-1a (5 mg/kg, every 72 h, i.p) was administered every 3 days, until they were sacrificed at day 35 post-BCAS (FIG. 3A). […] Motor functions are similar in all groups and average swimming speeds were not different in the Sham-, Veh- and ZT-1a-treated mice. Data are mean±SEM, n=6 (Sham and ZT-1a) or 5 (Veh), *p<0.01 vs. sham, *p<0.05 vs. Veh. After completion of the neurological function tests in the Veh-control and ZT-1a-treated BCAS cohort mice (as shown in FIG. 3A and FIG. 3B), ex-vivo brains were harvested for MRI DTI (diffusion tensor imaging) analysis of WML at 4 wks post-BCAS detected by DTI. The fractional anisotropy (FA), radial diffusivity (RD), and mean diffusivity (MD) of the CC and EC tracks were analyzed. Representative images of the DEC maps in FIG. 4A show severe loss of axonal fibers (arrowheads) in the CC and left EC of the Veh-control brains. […] These observations are consistent with changes of FA, RD, and MD values (FIG. 4B). […] Then MBP expression levels were measured in these brains by immunostaining. […] Taken together, these findings illustrated that post-BCAS administration of SPAK inhibitor ZT-1a reduces BCAS-induced white matter demyelination. […] To test this, immunostaining of the same cohort of brains (of FIG. 4A-D) was conducted to analyze oligodendrocyte precursor cell (OPC) counts (NG2^+), differentiated mature OLs (APC^+), and apoptotic OLs (caspase 3^+Olig2^+) in the Sham, Veh-, and ZT-1a-treated BCAS mice. […] Referring to FIG. 5A and FIG. 5B, representative double immunofluorescence images of APC (mature oligodendrocyte marker)/NG2 (oligodendrocyte precursor cell marker) in CC (FIG. 5A) and EC (FIG. 5B) of Sham, Veh-, and ZT-1a-treated brains at 4-wk after BCAS surgery. Nuclei were counterstained with DAPI. Quantitative analyses of APC^+/DAPI^+ cells and NG2^+/DAPI^+ cells is shown. Data are mean±SEM, n=4, *p<0.05, […]. Referring to FIG. 5C, representative double immunofluorescence images of Caspase 3^+/Olig2^+ cells in CC of Sham, Veh-, and ZT-1a-treated brains. Data are mean±SEM, n=4, *p<0.05. Without wishing to be bound by theory, it is speculated that ZT-1a treatment preserves white matter integrity via reducing reactive astrocyte-mediated inflammation in white matter tracks. […]

[4] = 4 wks post-BCAS, vs Veh-controls

Cc1cc(C(C#N)c2ccc(Cl)cc2)c(Cl)cc1NC(=O)c1cc(Cl)ccc1O (stereo not drawn) [1a (ZT-1a)]
memory function in novel objective recognition test (NOR) ([1]; 5 mg/kg i.p. every 72 h at 4-8 wks post-BCAS): no memory function impairment | body weight changes ([1]; 5 mg/kg i.p. every 72 h at 4-8 wks post-BCAS, data not shown): No body weight changes | MBP levels in CC and EC tracts ([1]; delayed administration 4-8 wks post-BCAS, p<0.05): significantly increased | cerebral blood flow (CBF) ([1]; delayed treatment for four weeks, by 8 wks post-BCAS): significantly improved | IC50 ([2]; Hypotonic conditions, read-out: SPAK pSer373 (μM) hypo): 3 µM | IC50 ([2]; Isotonic conditions, read-out: SPAK pSer373 (μM) Iso): 1 µM | decrease in GFAP expression in CC ([3]; 4 weeks after BCAS, n=4): ~50% | decrease in tNKCC1 expression in CC ([3]; 4 weeks after BCAS, n=4): ~60% | APC+ cell counts (mature OLs) in the CC and EC tracts [3, 4]: significantly higher | NG2+ cell counts (OPC) in the CC and EC tracts [3, 4]: significantly higher | caspase 3+ OLs cell counts in CC [3, 4]: less | MBP protein expression in the CC and EC tracks ([3]; 4 wks post-BCAS, vs Veh-treated BCAS brains, p<0.05): less MBP loss

Reference: patent publication US11925611B2, “Use of ZT-1A and analogs thereof to prevent and/or treat neurodegenerative and neurocognitive disorders” (United States Government as Represented by the Department …, priority 2021, dated 2024)
